In the supplement of paper PMC8960247:
Structures can show the parent of a compound that is named as a salt. ± gives the standard error.

Legend:
[1] = tested on: 621-103 (TSC2-rescued); assay: relative viability vs DMSO; higher = less cytotoxic; conditions: serum: 10% FBS, 72 h
[2] = tested on: 621-102 (TSC2-deficient); assay: as above; conditions: serum: 10% FBS, 72 h
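Note: immortalized renal angiomyolipoma cells stably carrying empty vector or TSC2, dosed in 384-well plates in DMEM, viability normalized to vehicle-treated wells within each plate.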

| SMILES | relative viability ([1]; 0.0001 µM) | relative viability ([1]; 0.001 µM) | relative viability ([1]; 0.01 µM) | relative viability ([1]; 0.1 µM) | relative viability ([1]; 1 µM) | relative viability ([1]; 10 µM) | relative viability ([2]; 0.0001 µM) | relative viability ([2]; 0.001 µM) | relative viability ([2]; 0.01 µM) | relative viability ([2]; 0.1 µM) | relative viability ([2]; 1 µM) | relative viability ([2]; 10 µM) |
| --- | --- | --- | --- | --- | --- | --- | --- | --- | --- | --- | --- | --- |
| CN1[C@@H]2CC[C@H]1C[C@@H](OC(=O)C(CO)c1ccccc1)C2 (stereo partly drawn) [Atropine sulfate monohydrate] | 80.5 ± 7% | 92.1 ± 8.5% | 105 ± 6.5% | 97.9 ± 6.4% | 89.9 ± 3.7% | 80.3 ± 5% | 64.6 ± 5.9% | 79 ± 1.7% | 83.3 ± 5.4% | 79.6 ± 6.8% | 70.8 ± 5.3% | 63.6 ± 6.5% |
| CN1CCCC(n2nc(Cc3ccc(Cl)cc3)c3ccccc3c2=O)CC1 (stereo not drawn) [Azelastine HCl (Astelin)] | 101 ± 3.8% | 92.3 ± 4.6% | 98.15 ± 0.86% | 100 ± 6.5% | 102 ± 2.2% | 68.28 ± 0.32% | 111 ± 0.65% | 114 ± 4.5% | 103 ± 4.9% | 109 ± 1.6% | 106.8 ± 0.17% | 90.43 ± 0.82% |
| O=C(c1cc(Cc2n[nH]c(=O)c3ccccc23)ccc1F)N1CCN(C(=O)C2CC2)CC1 [AZD2281 (Olaparib)] | 104 ± 1.5% | 103 ± 1.7% | 104.6 ± 0.91% | 99.6 ± 3.1% | 104 ± 1.5% | 98.4 ± 4.5% | 120 ± 2.1% | 129 ± 5.5% | 125 ± 5.6% | 120 ± 2.8% | 114.2 ± 0.69% | 81.75 ± 0.48% |
| CC(C)n1c(/C=C/C(O)CC(O)CC(=O)O)c(-c2ccc(F)cc2)c2ccccc21 (stereo not drawn) [Fluvastatin Sodium] | 102 ± 2.2% | 95.8 ± 2.6% | 99.5 ± 4.6% | 100 ± 2.1% | 71.8 ± 4.7% | 32.19 ± 0.096% | 102 ± 1.5% | 106 ± 3.3% | 105 ± 1.1% | 101 ± 3.1% | 100 ± 2.8% | 73.38 ± 0.72% |
| C[C@]12CC[C@H](O)CC1=CC[C@@H]1[C@@H]2CC[C@]2(C)C(=O)CC[C@@H]12 [DHEA] | 73.1 ± 4.3% | 81.7 ± 1.7% | 80.2 ± 3.5% | 86.4 ± 7% | 79 ± 6% | 71.2 ± 8.4% | 105.05 ± 0.093% | 105 ± 1.6% | 99.6 ± 3.3% | 104 ± 2.9% | 97.2 ± 3.6% | 107 ± 1.8% |
| Cc1[nH]nc2ccc(-c3cncc(OC[C@@H](N)Cc4ccccc4)c3)cc12 | 98.7 ± 4.7% | 89.14 ± 0.74% | 95.77 ± 0.18% | 101 ± 4% | 62.2 ± 1% | 6.08 ± 0.71% | 114.1 ± 0.3% | 108 ± 3.1% | 97.8 ± 2.1% | 99.05 ± 0.49% | 66.5 ± 1.1% | 2.57 ± 0.016% |
| O=C1NC(=O)C(c2ccccc2)(c2ccccc2)N1 [Phenytoin] | 105 ± 3.8% | 106 ± 6.7% | 100.3 ± 0.63% | 106 ± 4.5% | 101 ± 3% | 101 ± 7.8% | 109 ± 0.34% | 119 ± 4.6% | 101 ± 3% | 105 ± 1.9% | 97.4 ± 5% | 99.7 ± 1.3% |
| Cc1cc(OCCCS(C)(=O)=O)cc(C)c1-c1cccc(COc2ccc3c(c2)OC[C@H]3CC(=O)O)c1 [TAK-875] | 103 ± 3% | 102 ± 1.9% | 103.7 ± 0.45% | 102.5 ± 0.61% | 103 ± 3.5% | 95.16 ± 0.36% | 61.2 ± 7.8% | 61.5 ± 4% | 75.9 ± 5.2% | 80.9 ± 4.5% | 84.24 ± 0.76% | 84.2 ± 5.3% |
| C[N+]1(C)[C@@H]2C[C@@H](OC(=O)C(O)(c3cccs3)c3cccs3)C[C@H]1[C@@H]1O[C@@H]12 [Tiotropium] | 82.2 ± 1.7% | 96 ± 3.8% | 103.3 ± 0.58% | 96.8 ± 4.6% | 102.87 ± 0.086% | 100.4 ± 0.9% | 119 ± 3.2% | 114 ± 4.8% | 115 ± 4.8% | 111 ± 2.6% | 117 ± 4.4% | 112.5 ± 1.1% |
| O=C1c2ccccc2C(=O)c2c1ccc(O)c2O [Alizarin] | 101 ± 1.6% | 102 ± 5% | 101.4 ± 0.27% | 99.9 ± 3.2% | 95.2 ± 4.5% | 97.3 ± 1.1% | 108 ± 2.3% | 110 ± 0.84% | 108 ± 4.6% | 105 ± 1.5% | 107 ± 2.9% | 83 ± 3% |
| Oc1ncnc2[nH]ncc12 [Allopurinol] | 103 ± 3.1% | 98.4 ± 1.6% | 101 ± 3.5% | 98.7 ± 3.6% | 98.2 ± 1.6% | 100 ± 1.9% | 96.2 ± 0.32% | 105 ± 2.6% | 102 ± 1.7% | 91.9 ± 0.92% | 99.48 ± 0.58% | 101.9 ± 0.86% |
| C/C(=C\c1csc(C)n1)[C@@H]1C[C@@H]2O[C@@H]2CCC[C@H](C)[C@H](O)[C@@H](C)C(=O)C(C)(C)[C@@H](O)CC(=O)O1 [Epothilone A] | 87.3 ± 1.9% | 59.1 ± 2.4% | 44 ± 1.4% | 30.8 ± 0.67% | 26.7 ± 0.62% | 50.59 ± 0.26% | 63.5 ± 3% | 47 ± 4% | 31.1 ± 0.38% | 27.3 ± 1.1% | 30.4 ± 0.53% | 34.2 ± 0.53% |
| C#Cc1cccc(Nc2ncnc3cc(OCCOC)c(OCCO)cc23)c1 [OSI-420] | 102.2 ± 0.8% | 101.12 ± 0.0035% | 106.2 ± 0.97% | 100 ± 1.9% | 101.78 ± 0.034% | 74.8 ± 1.7% | 118 ± 6.5% | 106.9 ± 0.52% | 103 ± 0.19% | 95.9 ± 4% | 115 ± 2.9% | 95.8 ± 1.9% |
| COc1ccc([C@]2(C#N)CC[C@@H](C(=O)O)CC2)cc1OC1CCCC1 | 102.2 ± 0.093% | 98 ± 0.98% | 97.1 ± 1.8% | 106.2 ± 0.53% | 93.85 ± 0.76% | 93.4 ± 2.3% | 96.5 ± 2.4% | 102.9 ± 0.13% | 95.4 ± 2.6% | 102 ± 2.7% | 105 ± 1.7% | 98.6 ± 0.28% |
| O=C(CCCCCCC(=O)Nc1ccccc1)NO [Vorinostat] | 101 ± 2.2% | 98.74 ± 0.07% | 98.14 ± 0.97% | 97.94 ± 0.86% | 97.19 ± 0.86% | 26.6 ± 0.47% | 117 ± 3.2% | 120 ± 2.4% | 114 ± 2.5% | 106 ± 1.3% | 91.54 ± 0.85% | 63.7 ± 1.4% |
| COc1cc2c(cc1Cc1cccc(Cl)c1F)c(=O)c(C(=O)O)cn2[C@H](CO)C(C)C [Elvitegravir] | 101 ± 1.1% | 102 ± 1.9% | 98.96 ± 0.48% | 98.96 ± 0.9% | 101.1 ± 1% | 99.17 ± 0.59% | 96.63 ± 0.78% | 107.1 ± 0.31% | 105 ± 3.3% | 106 ± 1.4% | 110 ± 3% | 99.7 ± 3.7% |
| COC(=O)C1=C(C)NC(C)=C(C(=O)OCCN2CCN(C(c3ccccc3)c3ccccc3)CC2)C1c1cccc([N+](=O)[O-])c1 (stereo not drawn) [Manidipine HCl (CV-4093)] | 90.9 ± 2% | 90 ± 1.3% | 98 ± 1.7% | 100.85 ± 0.1% | 89.9 ± 1.2% | 74.2 ± 1.2% | 110.7 ± 1% | 110.4 ± 0.56% | 104.3 ± 0.49% | 109 ± 2% | 107 ± 4% | 94.55 ± 0.56% |
| CCOC(=O)[C@H](CCc1ccccc1)N[C@@H](C)C(=O)N1[C@H](C(=O)O)C[C@@H]2CCC[C@@H]21 [Ramipril] | 104 ± 5.8% | 104 ± 2.4% | 92.3 ± 11% | 106 ± 0.85% | 102 ± 5% | 111 ± 1.6% | 107.5 ± 1% | 108 ± 2.2% | 102.3 ± 0.74% | 106 ± 4.6% | 108 ± 2.3% | 106.9 ± 0.7% |
| COc1cc2nc(N3CCN(C(=O)C4COc5ccccc5O4)CC3)nc(N)c2cc1OC (stereo not drawn) [Doxazosin mesylate] | 98.4 ± 1.8% | 95.8 ± 1.5% | 108 ± 2.6% | 101 ± 3.2% | 100.5 ± 0.52% | 88.314 ± 0.032% | 101 ± 0.75% | 99.06 ± 0.17% | 102.2 ± 0.51% | 100 ± 2.2% | 99.87 ± 0.89% | 95.9 ± 2.9% |
